Values quoted from earlier work, collected in patent US20060165806A1, “Nanoparticulate candesartan formulations” (Elan Pharma International Limited, priority 2005, published 2006).

Experiments:
AT1 receptor = biological target: T1, AT1 receptor (Homo sapiens, UniProt P30556); details: AT1 versus AT2 receptor
T1 sequence (P30556 1-359): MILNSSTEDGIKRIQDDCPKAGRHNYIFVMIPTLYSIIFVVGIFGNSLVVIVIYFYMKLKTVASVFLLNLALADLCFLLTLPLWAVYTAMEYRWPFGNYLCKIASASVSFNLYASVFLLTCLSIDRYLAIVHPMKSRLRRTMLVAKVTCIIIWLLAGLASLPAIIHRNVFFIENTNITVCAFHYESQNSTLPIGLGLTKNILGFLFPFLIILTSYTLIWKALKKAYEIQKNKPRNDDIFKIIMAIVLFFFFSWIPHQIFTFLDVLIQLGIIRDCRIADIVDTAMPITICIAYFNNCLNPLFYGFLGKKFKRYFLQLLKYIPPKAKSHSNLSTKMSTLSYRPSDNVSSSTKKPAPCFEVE

ACE (kininase II) = ACE (kininase II) (Homo sapiens, UniProt P12821)
[1] = test system: other hormone receptors or ion channels known to be important in cardiovascular regulation; details: receptors and channels important in cardiovascular regulation

ACE (kininase II), sequence (P12821 30-1306, species assumed): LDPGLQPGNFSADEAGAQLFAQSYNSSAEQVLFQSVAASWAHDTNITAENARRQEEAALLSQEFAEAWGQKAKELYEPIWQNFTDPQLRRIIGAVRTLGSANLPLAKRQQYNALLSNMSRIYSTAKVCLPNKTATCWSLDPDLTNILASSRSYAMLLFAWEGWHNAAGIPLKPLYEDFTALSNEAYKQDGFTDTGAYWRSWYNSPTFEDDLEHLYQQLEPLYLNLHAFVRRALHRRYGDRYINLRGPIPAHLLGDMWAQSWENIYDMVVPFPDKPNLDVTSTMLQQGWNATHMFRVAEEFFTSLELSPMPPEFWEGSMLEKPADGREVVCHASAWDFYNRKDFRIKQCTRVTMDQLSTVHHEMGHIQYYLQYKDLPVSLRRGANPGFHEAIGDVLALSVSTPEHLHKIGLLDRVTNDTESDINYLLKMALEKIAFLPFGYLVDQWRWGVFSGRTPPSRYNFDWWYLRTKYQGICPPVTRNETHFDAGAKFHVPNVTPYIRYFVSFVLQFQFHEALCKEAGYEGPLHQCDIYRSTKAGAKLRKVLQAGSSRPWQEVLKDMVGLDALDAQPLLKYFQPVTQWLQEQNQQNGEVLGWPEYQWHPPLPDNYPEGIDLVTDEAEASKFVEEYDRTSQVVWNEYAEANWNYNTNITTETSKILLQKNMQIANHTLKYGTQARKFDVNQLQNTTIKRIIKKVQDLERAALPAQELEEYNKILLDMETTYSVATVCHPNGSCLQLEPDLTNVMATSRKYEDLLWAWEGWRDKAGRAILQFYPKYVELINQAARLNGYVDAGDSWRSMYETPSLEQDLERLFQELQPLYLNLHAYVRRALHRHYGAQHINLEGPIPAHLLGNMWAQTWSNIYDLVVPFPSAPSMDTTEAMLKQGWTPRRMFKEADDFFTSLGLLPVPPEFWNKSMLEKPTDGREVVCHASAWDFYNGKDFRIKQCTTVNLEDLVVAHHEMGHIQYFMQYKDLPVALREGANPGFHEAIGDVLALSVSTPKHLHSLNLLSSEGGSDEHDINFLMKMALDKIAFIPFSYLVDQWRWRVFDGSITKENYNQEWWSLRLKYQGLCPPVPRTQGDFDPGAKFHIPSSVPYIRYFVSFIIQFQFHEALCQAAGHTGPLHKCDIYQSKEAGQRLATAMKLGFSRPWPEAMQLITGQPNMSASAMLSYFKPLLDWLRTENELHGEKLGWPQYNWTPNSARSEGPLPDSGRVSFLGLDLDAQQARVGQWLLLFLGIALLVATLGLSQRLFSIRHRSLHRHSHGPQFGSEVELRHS

solubility in water	greater affinity for the AT1 receptor than for the AT2 receptor (AT1 receptor)	inhibition of ACE (kininase II) (ACE (kininase II))	SMILES	binding to or blocking of other hormone receptors or ion channels [1]
practically insoluble	–	–	CCOc1nc2cccc(C(=O)OC(C)OC(=O)OC3CCCCC3)c2n1Cc1ccc(-c2ccccc2-c2nnn[nH]2)cc1 (racemic) [Candesartan cilexitil, (“)-1-Hydroxyethyl 2-ethoxy-1-[p-(o-1H-tetrazol-5-ylphenyl)benzyl]-7-benzimidazolecarboxylate, cyclohexyl carbonate(ester)]	–
–	> 10,000 fold	does not inhibit	CCOc1nc2cccc(C(=O)O)c2n1Cc1ccc(-c2ccccc2-c2nnn[nH]2)cc1 [Candesartan]	does not bind to or block
